20 molecules from patent US8202885B2, “Bridged six-membered ring compounds” (Actelion Pharmaceuticals Ltd., priority 2007, dated 2012) can be followed below.

By IC50 is commonly meant the concentration that gives 50% inhibition.

A value given as a limit tells only on which side of the number the result lay.

The test deals with human Cav3.1 Cav3.2 or Cav3.3 channel. Put plainly: In vitro assay T channel (FLIPR calcium fluorescence). It is filed as cell-based. The following applies: HEK293 cells expressing human Cav3.1, Cav3.2 or Cav3.3; 10 mM Ca2+-induced fluo-4 fluorescence; determined up to 10 μM; read-out: T channel antagonistic activity IC50. As for the experimental part:
The T channel antagonistic activity (IC50 values) of the compounds of formula (I) is determined in accordance with the following experimental method and data are shown in Table 1.
Human embryonic kidney (HEK293) cells expressing the human Cav3.1 Cav3.2 or Cav3.3 channel, respectively, are grown in culture medium (DMEM containing 10% heat-inactivated fetal calf serum (FCS), 100 U/ml penicillin, 100 μg/ml streptomycin and 1 mg/ml G418). The cells are seeded at 20.000 cells/well into 384-well black clear bottom sterile plates (poly-L-lysine-coated, Becton Dickinson). The seeded plates are incubated overnight at 37° C. in 5% CO2. The Ca^2+ solution is prepared as 100 mM stock solution in 100 mM tetraethylammoniumchloride (TEA-chloride), 50 mM HEPES, 2.5 mM CaCl2, 5 mM KCl, 1 mM MgCl2, adjusted to pH 7.2 with TEA-hydroxide, for use in the assay at a final concentration of 10 mM. Antagonists are prepared as 10 mM stock solutions in DMSO, then diluted in 384 w plates first in DMSO, then in 100 mM TEA-chloride, 50 mM HEPES, 2.5 mM CaCl2, 5 mM KCl, 1 mM MgCl2, adjusted to pH 7.2 with TEA-hydroxide, to obtain 9× stocks. On the day of the assay, 25 μl of staining buffer (HBSS containing 20 mM HEPES, 0.375 g/l NaHCO3 and 3 μM of the fluorescent calcium indicator fluo-4 AM (1 mM stock solution in DMSO, containing 10% pluronic) is added to each well of the seeded plate. The 384-well cell-plates are incubated for 60 min at 37° C. in 5% CO2 followed by washing with 2×50 μl per well using HBSS containing 0.1% BSA, 20 mM HEPES, 0.375 g/l NaHCO3, leaving 50 […] of this buffer for equilibration at room temperature (30-60 min). Within the Fluorescent Imaging Plate Reader (FLIPR, Molecular Devices), antagonists are added to the plate in a volume of 6.25 μl/well, incubated for 3 min, and finally 6.25 […] of Ca^2+ solution is added. Fluorescence is measured for each well at 2 second intervals for 8 minutes, and the area under the curve of each fluorescence peak is compared to the area of the fluorescence peak induced by 10 mM Ca^2+ with vehicle in place of antagonist. For each antagonist, the IC50 value (the concentration (in nM) of compound needed to inhibit 50% of the Ca^2+-induced fluorescence response) up to 10 μM is determined.
Take `COCC(C)(COC)C(=O)N(C)CCCN(C)CC[C@]1(OC(=O)C(C)C)C[C@H]2CC[C@@H]1C(c1ccccc1)=C2C` (relative stereo) [Example 53A, rac-Isobutyric acid (1R*,2R*,4R*)-2-[2-({3-[(3-methoxy-2-methoxymethyl-2-methyl-propionyl)-methyl-amino]-propyl}-methyl-amino)-ethyl]-5-methyl-6-phenyl-bicyclo[2.2.2]oct-5-en-2-yl ester]: the IC50 came to 688 nM.

As for `CC1=C(c2ccccc2)[C@H]2CC[C@@H]1C[C@]2(O)CCN(C)CCCc1nc2ccccc2[nH]1` (relative stereo) [Example 17B, rac-(1R*,2S*,4R*)-2-(2-{[3-(1H-Benzoimidazol-2-yl)-propyl]-methyl-amino}-ethyl)-5-methyl-6-phenyl-bicyclo[2.2.2]oct-5-en-2-ol], the IC50 was found to be 751 nM.

Take `CC(C)C(=O)O[C@@]1(CCN(C)CCCc2cnc3ccccc3c2)C[C@H]2CC[C@@H]1C=C2c1ccccc1` (relative stereo) [Example 49A, rac-Isobutyric acid (1R*,2R*,4R*)-2-{2-[methyl-(3-quinolin-3-yl-propyl)-amino]-ethyl}-5-phenyl-bicyclo[2.2.2]oct-5-en-2-yl ester]: the IC50 was 8500 nM.

Turning to `CC(C)C(=O)O[C@@]1(CCN(C)CCc2nc3ccccc3[nH]2)C[C@H]2CC[C@@H]1C=C2c1ccccc1` (relative stereo) [Example 13A, rac-Isobutyric acid (1R*,2R*,4R*)-2-(2-{[2-(1H-benzoimidazol-2-yl)-ethyl]-methyl-amino}-ethyl)-5-phenyl-bicyclo[2.2.2]oct-5-en-2-yl ester], the half-maximal inhibitory concentration (IC50) was found to be 4340 nM.

Take `COc1cccc2c1nc(CCCN(C)CC[C@]1(O)C[C@H]3CC[C@@H]1C=C3c1ccccc1)n2C` (relative stereo) [Example 37, rac-(1R*,2R*,4R*)-2-(2-{[3-(4-Methoxy-1-methyl-1H-benzoimidazol-2-yl)-propyl]-methyl-amino}-ethyl)-5-phenyl-bicyclo[2.2.2]oct-5-en-2-ol]: the IC50 was 6650 nM.

Consider `CO[C@@]1(c2ccccc2)C[C@H]2CC[C@@H]1C[C@@]2(CCN(C)CCCc1nc2ccccc2[nH]1)OC(=O)C(C)C` (relative stereo) [Example 77A, rac-Isobutyric acid (1R*,2S*,4R*,5S*)-2-(2-{[3-(1H-benzoimidazol-2-yl)-propyl]-methyl-amino}-ethyl)-5-methoxy-5-phenyl-bicyclo[2.2.2]oct-2-yl ester], for which the IC50 is 2630 nM.

As for `CC(C)C(=O)O[C@@]1(CCN(C)Cc2nc3ccccc3[nH]2)C[C@H]2CC[C@@H]1C=C2c1ccccc1` (relative stereo) [Example 14A, rac-Isobutyric acid (1R*,2R*,4R*)-2-{2-[(1H-benzoimidazol-2-ylmethyl)-methyl-amino]-ethyl}-5-phenyl-bicyclo[2.2.2]oct-5-en-2-yl ester], the IC50 came to 3180 nM.

For the molecule `Cc1ccccc1C1=C[C@H]2CC[C@@H]1C[C@]2(CCN(C)CCCc1nc2ccccc2[nH]1)OC(=O)C(C)C` (relative stereo) [Example 4A, rac-Isobutyric acid (1R*,2R*,4R*)-2-(2-{[3-(1H-benzoimidazol-2-yl)-propyl]-methyl-amino}-ethyl)-5-(2-methyl-phenyl)-bicyclo[2.2.2]oct-5-en-2-yl ester], the IC50 is 4220 nM.

Regarding `COCC(C)(COC)C(=O)NCCCN(C)CC[C@]1(OC(=O)C(C)C)C[C@H]2CC[C@@H]1C=C2c1ccccc1` (relative stereo) [Example 43A, rac-Isobutyric acid (1R*,2R*,4R*)-2-(2-{[3-(3-methoxy-2-methoxymethyl-2-methyl-propionylamino)-propyl]-methyl-amino}-ethyl)-5-phenyl-bicyclo[2.2.2]oct-5-en-2-yl ester], the IC50 came to 2710 nM.

For the molecule `COc1ccc(CCCN(C)CC[C@]2(OC(=O)C(C)C)C[C@H]3CC[C@@H]2C=C3c2ccccc2)cc1OC` (relative stereo) [Example 39A, rac-Isobutyric acid (1R*,2R*,4R*)-2-(2-{[3-(3,4-dimethoxy-phenyl)-propyl]-methyl-amino}-ethyl)-5-phenyl-bicyclo[2.2.2]oct-5-en-2-yl ester], the IC50 came to 7490 nM.

For `CC(C)C(=O)Oc1cccc2nc(CCCN(C)CC[C@]3(OC(=O)C(C)C)C[C@H]4CC[C@@H]3C=C4c3ccccc3)[nH]c12` (relative stereo) [Example 34A, rac-Isobutyric acid (1R*,2R*,4R*)-2-(2-{[3-(7-isobutyryloxy-1H-benzoimidazol-2-yl)-propyl]-methyl-amino}-ethyl)-5-phenyl-bicyclo[2.2.2]oct-5-en-2-yl ester], the IC50 worked out at 4340 nM.

Take `CC(C)C(=O)O[C@@]1(CCN(C)CCCc2nc3ccccc3[nH]2)C[C@@H]2C=C[C@H]1CC2` (relative stereo) [Example 75A, rac-Isobutyric acid (1R*,2R*,4R*)-2-(2-{[3-(1H-benzoimidazol-2-yl)-propyl]-methyl-amino}-ethyl)-bicyclo[2.2.2]oct-5-en-2-yl ester]: the 50% inhibitory concentration (IC50) was 1780 nM.

For `COCC(C)(COC)C(=O)NCCCN(C)CC[C@]1(O)C[C@H]2CC[C@@H]1C=C2c1ccccc1` (relative stereo) [Example 43, rac-N-(3-{[2-((1R*,2R*,4R*)-2-Hydroxy-5-phenyl-bicyclo[2.2.2]oct-5-en-2-yl)-ethyl]-methyl-amino}-propyl)-3-methoxy-2-methoxymethyl-2-methyl-propionamide], the 50% inhibitory concentration (IC50) is over 10000 nM.

For `CCCC1=C(C)[C@H]2CC[C@@H]1C[C@]2(CCN(C)CCCc1nc2ccccc2[nH]1)OC(=O)C(C)C` (relative stereo) [Example 16A, rac-Isobutyric acid (1R*,2R*,4R*)-2-(2-{[3-(1H-benzoimidazol-2-yl)-propyl]-methyl-amino}-ethyl)-6-methyl-5-propyl-bicyclo[2.2.2]oct-5-en-2-yl ester], the IC50 came to 2390 nM.

Turning to `CCCC1=C(C)[C@H]2CC[C@@H]1C[C@@]2(O)CCN(C)CCCc1nc2ccccc2[nH]1` (relative stereo) [Example 16, rac-(1R*,2R*,4R*)-2-(2-{[3-(1H-Benzoimidazol-2-yl)-propyl]-methyl-amino}-ethyl)-6-methyl-5-propyl-bicyclo[2.2.2]oct-5-en-2-ol], the IC50 turned out to be 5690 nM.

Turning to `CC1=C(c2ccccc2)[C@H]2CC[C@@H]1C[C@@]2(O)CCN(C)CCCc1nc2ccccc2[nH]1` (relative stereo) [Example 17, rac-(1R*,2R*,4R*)-2-(2-{[3-(1H-Benzoimidazol-2-yl)-propyl]-methyl-amino}-ethyl)-5-methyl-6-phenyl-bicyclo[2.2.2]oct-5-en-2-ol], the IC50 is 1260 nM.

For the molecule `COc1cccc2nc(CCN(C)CC[C@]3(O)C[C@H]4CC[C@@H]3C=C4c3ccccc3)[nH]c12` (relative stereo) [Example 32, rac-(1R*,2R*,4R*)-2-(2-{[2-(7-Methoxy-1H-benzoimidazol-2-yl)-ethyl]-methyl-amino}-ethyl)-5-phenyl-bicyclo[2.2.2]oct-5-en-2-ol], the concentration for half-maximal inhibition (IC50) was 1480 nM.

For the molecule `Cc1ccc(C2=C[C@H]3CC[C@@H]2C[C@]3(CCN(C)CCCc2nc3ccccc3[nH]2)OC(=O)C(C)C)cc1` (relative stereo) [Example 6A, rac-Isobutyric acid (1R*,2R*,4R*)-2-(2-{[3-(1H-benzoimidazol-2-yl)-propyl]-methyl-amino}-ethyl)-5-(4-methyl-phenyl)-bicyclo[2.2.2]oct-5-en-2-yl ester], the IC50 came out at 6830 nM.

In the case of `COC(=O)c1cccc2[nH]c(CCCN(C)CC[C@]3(OC(=O)C(C)C)C[C@H]4CC[C@@H]3C=C4c3ccccc3)nc12` (relative stereo) [Example 19A, rac-2-(3-{[2-((1R*,2R*,4R*)-2-Isobutyryloxy-5-phenyl-bicyclo[2.2.2]oct-5-en-2-yl)-ethyl]-methyl-amino}-propyl)-1H-benzoimidazole-4-carboxylic acid methyl ester], the IC50 came out at 1700 nM.

Regarding `COc1cccc2[nH]c(CCCN(C)CC[C@]3(OC(=O)C(C)(C)C)C[C@H]4CC[C@@H]3C=C4c3ccccc3)nc12` (relative stereo) [Example 26D, rac-2,2-Dimethyl propionic acid (1R*,2R*,4R*)-2-(2-{[3-(4-methoxy-1H-benzoimidazol-2-yl)-propyl]-methyl-amino}-ethyl)-5-phenyl-bicyclo[2.2.2]oct-5-en-2-yl ester], the IC50 came to 1050 nM.
